# Results published in patent US8173813B2, “Quinolone and tetrahydroquinolone and related compounds having NOS inhibitory activity” (NeurAxon, Inc., priority 2007, dated 2012).
# “And” between values parts separate entries of the source, which are not always exact repeats. Identical values can stand only once. Like-named read-outs stand apart in the source and are kept apart here.
# Columns and labels:
# [1] = biological target: Nitric oxide synthase (neuronal, human recombinant) nNOS (Homo sapiens, UniProt P29475); test: Human nNOS enzyme assay ([3H]L-arginine to [3H]L-citrulline); type: biochemical; conditions: for IC50: read-out: hnNOS IC50; for Selectivity eNOS/nNOS: human enzymes, ratio of eNOS IC50 to nNOS IC50
# Nitric oxide synthase (neuronal, human recombinant) nNOS, sequence (P29475 whole entry): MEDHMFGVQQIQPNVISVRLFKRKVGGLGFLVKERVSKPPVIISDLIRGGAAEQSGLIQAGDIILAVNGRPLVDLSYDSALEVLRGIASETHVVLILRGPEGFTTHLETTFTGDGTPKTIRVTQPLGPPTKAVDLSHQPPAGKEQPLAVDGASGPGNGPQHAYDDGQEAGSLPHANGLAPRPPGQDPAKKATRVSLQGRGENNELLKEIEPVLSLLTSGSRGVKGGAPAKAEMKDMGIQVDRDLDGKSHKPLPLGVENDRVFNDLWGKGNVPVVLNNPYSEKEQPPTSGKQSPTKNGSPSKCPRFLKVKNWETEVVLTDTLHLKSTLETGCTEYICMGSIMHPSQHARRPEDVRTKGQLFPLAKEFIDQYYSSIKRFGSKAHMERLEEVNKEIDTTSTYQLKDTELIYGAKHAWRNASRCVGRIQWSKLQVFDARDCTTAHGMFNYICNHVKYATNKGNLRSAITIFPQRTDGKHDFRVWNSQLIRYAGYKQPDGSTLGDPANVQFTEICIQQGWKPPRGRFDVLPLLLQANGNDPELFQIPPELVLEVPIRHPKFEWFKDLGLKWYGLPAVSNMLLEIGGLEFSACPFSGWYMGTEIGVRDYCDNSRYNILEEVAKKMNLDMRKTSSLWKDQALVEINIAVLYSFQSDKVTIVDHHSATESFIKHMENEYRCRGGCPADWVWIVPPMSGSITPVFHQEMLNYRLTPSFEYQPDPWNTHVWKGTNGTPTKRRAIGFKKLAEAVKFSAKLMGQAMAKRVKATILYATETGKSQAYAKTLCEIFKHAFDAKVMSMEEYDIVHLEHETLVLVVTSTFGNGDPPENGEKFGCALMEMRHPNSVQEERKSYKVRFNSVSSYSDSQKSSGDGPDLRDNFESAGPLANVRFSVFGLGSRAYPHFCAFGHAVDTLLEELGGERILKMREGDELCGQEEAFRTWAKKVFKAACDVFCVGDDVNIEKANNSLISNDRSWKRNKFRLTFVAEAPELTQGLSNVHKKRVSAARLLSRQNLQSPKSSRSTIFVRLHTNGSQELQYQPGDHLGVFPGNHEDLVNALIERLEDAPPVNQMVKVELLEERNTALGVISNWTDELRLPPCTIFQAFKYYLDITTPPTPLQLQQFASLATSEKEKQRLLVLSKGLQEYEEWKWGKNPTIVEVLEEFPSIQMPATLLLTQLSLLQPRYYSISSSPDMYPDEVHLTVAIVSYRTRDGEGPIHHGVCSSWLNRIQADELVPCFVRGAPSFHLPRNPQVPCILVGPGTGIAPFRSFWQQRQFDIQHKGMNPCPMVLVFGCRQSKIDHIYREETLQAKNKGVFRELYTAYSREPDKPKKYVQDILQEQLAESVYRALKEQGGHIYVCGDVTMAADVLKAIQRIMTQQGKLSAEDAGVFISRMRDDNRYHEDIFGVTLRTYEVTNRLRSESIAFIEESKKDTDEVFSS
# [2] = biological target: Recombinant human inducible NOS (iNOS) (Homo sapiens, UniProt P35228); test: Human iNOS enzyme assay, radiometric; type: biochemical; conditions: read-out: hiNOS IC50
# Recombinant human inducible NOS (iNOS), sequence (P35228 whole entry): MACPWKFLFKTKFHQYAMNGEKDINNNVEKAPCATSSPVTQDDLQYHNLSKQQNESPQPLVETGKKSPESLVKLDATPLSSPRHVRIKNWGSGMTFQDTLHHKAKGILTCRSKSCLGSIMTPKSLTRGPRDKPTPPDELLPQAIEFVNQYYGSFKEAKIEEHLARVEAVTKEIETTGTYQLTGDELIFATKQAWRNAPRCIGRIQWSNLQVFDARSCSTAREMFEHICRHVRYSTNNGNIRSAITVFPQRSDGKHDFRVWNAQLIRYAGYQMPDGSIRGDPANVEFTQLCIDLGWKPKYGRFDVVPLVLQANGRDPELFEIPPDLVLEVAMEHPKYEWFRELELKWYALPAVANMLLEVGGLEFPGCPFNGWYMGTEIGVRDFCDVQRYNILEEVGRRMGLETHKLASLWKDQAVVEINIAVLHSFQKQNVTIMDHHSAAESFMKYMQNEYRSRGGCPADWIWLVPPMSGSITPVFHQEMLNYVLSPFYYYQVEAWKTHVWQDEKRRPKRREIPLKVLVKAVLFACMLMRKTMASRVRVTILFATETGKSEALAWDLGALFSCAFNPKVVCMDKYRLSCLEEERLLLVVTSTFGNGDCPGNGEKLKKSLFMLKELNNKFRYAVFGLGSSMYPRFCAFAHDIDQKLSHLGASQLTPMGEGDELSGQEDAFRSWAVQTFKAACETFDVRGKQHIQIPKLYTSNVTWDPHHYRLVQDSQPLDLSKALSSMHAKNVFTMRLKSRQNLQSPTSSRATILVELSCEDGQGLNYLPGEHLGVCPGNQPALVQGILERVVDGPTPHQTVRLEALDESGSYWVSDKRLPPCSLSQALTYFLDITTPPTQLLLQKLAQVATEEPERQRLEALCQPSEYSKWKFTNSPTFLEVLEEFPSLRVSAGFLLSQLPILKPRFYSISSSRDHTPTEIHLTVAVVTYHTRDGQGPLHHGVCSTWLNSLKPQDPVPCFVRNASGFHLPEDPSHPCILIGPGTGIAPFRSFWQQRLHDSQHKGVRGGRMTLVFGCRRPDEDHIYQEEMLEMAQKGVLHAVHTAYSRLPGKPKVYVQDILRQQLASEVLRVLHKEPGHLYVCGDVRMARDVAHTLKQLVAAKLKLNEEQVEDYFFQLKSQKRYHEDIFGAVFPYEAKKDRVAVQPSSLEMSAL
# nNOS (Rat) = nNOS (Rat) (Rattus norvegicus, UniProt P29476); test: nNOS (Rat) enzyme assay; type: biochemical; conditions: for IC50: read-out: nNOS IC50 (rodent data in parentheses)
# Experimental: (§1) nNOS (Rat), eNOS (Rat) and iNOS (Mouse) Enzyme Assay Recombinant rat or mouse NO synthases (iNOS, eNOS, nNOS) were expressed in Sf9 cells (Sigma), 36 mg prot/ml (Bradford). […] Inhibition of NOS was determined by measuring the formation of L-[3H] citrulline from L-[3H] arginine. […] Stop buffer:100 mM Hepes, pH 5.5, 3 mM EDTA, 3 mM EGTA.
# eNOS (Rat) = eNOS (Rat) (Rattus norvegicus, UniProt Q62600); test: eNOS (Rat) enzyme assay; type: biochemical; conditions: values in parentheses; for IC50: read-out: eNOS IC50 (rodent data in parentheses)
# eNOS (Rat), sequence (Q62600 2-1202): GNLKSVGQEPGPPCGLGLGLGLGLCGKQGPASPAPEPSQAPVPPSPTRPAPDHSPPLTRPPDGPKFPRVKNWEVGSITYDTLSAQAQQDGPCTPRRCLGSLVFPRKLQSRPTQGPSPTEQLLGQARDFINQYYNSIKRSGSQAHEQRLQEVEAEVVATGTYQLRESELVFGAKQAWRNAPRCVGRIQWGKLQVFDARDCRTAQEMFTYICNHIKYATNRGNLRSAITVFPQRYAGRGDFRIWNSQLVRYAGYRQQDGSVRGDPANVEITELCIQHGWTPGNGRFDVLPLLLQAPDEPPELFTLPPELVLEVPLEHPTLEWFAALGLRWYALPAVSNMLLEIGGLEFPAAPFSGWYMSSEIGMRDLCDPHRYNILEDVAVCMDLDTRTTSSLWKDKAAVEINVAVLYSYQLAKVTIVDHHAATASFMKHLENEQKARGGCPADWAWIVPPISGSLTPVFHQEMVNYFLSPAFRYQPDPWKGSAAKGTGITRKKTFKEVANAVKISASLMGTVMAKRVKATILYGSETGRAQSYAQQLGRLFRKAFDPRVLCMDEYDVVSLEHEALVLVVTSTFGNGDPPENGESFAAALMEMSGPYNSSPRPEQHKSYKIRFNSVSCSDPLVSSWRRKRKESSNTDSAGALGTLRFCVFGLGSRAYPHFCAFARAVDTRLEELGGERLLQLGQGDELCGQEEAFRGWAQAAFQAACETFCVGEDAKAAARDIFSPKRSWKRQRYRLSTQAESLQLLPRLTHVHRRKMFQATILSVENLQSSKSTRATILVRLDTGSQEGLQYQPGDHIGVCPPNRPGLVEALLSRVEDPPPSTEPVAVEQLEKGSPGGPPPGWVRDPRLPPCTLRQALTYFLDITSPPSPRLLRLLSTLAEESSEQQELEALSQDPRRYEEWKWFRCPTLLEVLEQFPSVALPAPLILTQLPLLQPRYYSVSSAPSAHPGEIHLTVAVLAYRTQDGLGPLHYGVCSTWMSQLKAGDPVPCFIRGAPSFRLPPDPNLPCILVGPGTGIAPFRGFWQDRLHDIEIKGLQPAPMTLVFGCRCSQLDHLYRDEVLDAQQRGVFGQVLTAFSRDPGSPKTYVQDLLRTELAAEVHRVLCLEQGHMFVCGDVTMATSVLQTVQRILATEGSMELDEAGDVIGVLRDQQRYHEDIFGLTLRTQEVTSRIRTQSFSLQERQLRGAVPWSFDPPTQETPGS
# iNOS (Mouse) = iNOS (Mouse) (Mus musculus, UniProt P29477); test: iNOS (Mouse) enzyme assay; type: biochemical; conditions: values in parentheses, read-out: iNOS IC50 (rodent data in parentheses)
# Experimental: as §1, with “EGTA. Enzyme and inhibitor were pre-incubated for 35 min in the presence of NADPH before addition of arginine to initiate the reaction.” for “EGTA.”
# [3] = test system: Rats with L5/L6 spinal nerve ligation; test: Chung Spinal Nerve Ligation model, thermal hyperalgesia; type: in vivo, rat; conditions: standard dosings 3, 10, and 30 mg/kg injected IP
# [4] = biological target: Nitric oxide synthase (endothelial, human recombinant) eNOS (Homo sapiens, UniProt P29474); test: Human eNOS enzyme assay ([3H]L-arginine to [3H]L-citrulline); type: biochemical; conditions: read-out: heNOS IC50
# Nitric oxide synthase (endothelial, human recombinant) eNOS, sequence (P29474 2-1203): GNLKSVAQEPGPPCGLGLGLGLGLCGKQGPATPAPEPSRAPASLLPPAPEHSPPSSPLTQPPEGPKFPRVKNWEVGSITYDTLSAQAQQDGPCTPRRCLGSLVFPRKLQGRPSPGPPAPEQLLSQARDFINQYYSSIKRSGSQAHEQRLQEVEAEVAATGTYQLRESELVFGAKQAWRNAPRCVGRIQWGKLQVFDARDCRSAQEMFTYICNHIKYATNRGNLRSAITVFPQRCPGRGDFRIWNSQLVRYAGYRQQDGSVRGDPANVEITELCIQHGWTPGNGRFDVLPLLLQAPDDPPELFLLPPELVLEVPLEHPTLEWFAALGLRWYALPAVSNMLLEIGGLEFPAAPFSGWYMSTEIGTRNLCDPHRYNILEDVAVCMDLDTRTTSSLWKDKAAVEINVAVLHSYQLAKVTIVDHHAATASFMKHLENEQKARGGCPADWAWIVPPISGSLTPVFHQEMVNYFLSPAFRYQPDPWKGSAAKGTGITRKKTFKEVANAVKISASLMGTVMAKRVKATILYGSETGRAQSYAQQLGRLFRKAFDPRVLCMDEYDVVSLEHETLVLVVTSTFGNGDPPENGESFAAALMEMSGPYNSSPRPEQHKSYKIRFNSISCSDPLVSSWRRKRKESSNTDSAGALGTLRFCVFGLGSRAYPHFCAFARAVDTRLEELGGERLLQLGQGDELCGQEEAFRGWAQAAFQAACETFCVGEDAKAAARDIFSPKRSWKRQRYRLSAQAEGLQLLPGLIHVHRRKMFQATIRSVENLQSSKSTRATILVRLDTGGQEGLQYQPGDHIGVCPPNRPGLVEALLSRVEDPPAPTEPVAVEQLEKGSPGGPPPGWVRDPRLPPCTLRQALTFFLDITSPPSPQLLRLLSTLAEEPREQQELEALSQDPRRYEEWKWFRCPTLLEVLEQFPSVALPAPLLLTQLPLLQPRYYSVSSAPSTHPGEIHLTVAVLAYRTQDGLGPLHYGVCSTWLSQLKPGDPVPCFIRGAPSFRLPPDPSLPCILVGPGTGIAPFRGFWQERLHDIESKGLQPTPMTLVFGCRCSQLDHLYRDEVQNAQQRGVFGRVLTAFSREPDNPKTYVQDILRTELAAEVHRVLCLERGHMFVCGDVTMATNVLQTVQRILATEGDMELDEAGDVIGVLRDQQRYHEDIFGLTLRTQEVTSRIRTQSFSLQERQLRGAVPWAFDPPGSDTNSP
# [5] = test system: sciatic nerve cuff-implanted rats; test: Sciatic Nerve Cuff model, mechanical allodynia (von Frey hair); type: in vivo, rat; conditions: i.p 30 mg/kg
# Experimental: The Sciatic Nerve Cuff model in rats (Mosconi and Kruger, 1996, Pain 64, 37-57) involves implantation of a plastic cuff around the sciatic nerve that results in painful neuropathy several days after surgery and induction of nociceptive afterdischarge in spinal neurons after innocuous peripheral mechanical stimulation (G. M. Pitcher and J. L. Henry). Mechanical allodynia is measured in the ipsilateral paw using calibrated von Frey hair testing. A single acute application of the drug (i.p. dosing) reverses the post-cuff pain thresholds to mechanical stimulus towards normal threshold levels.
# The study utilized a cuff model (Mosconi T, Kruger L. Fixed-diameter polyethylene cuffs applied to the rat sciatic nerve induce a painful neuropathy: ultrastructural morphometric analysis of axonal alterations. Pain 64: 37-57, 1996) to examine the therapeutic effectiveness of the test compound 11 on a battery of behavioural endpoints in rats.
# The testing chamber consists of a 30×30×30 cm Plexiglas box with a clear Plexiglas floor. This floor contained 0.5 cm diameter holes that are spaced 1.5 cm apart, and is positioned over a mirror, which allows an unobstructed view of the rat paws. Animals are placed in the testing chamber and allowed to acclimatize for 30 min prior to testing. von Frey filaments (Stoelting Co., Illinois, USA) are applied to the soft tissue of the plantar surface of the hind paw to determine the withdrawal threshold. The first filament applied corresponds to a force of 4.31 grams. […] A 50% response threshold is calculated according to the response pattern observed (described by Chaplan et al. 1994). […]
# A baseline reading with von Frey hairs is taken before model induction. Thus rats are acclimatized to the testing chamber and readings are taken for at least three days for the baseline before any surgery. After the surgery von Frey hair testing for any development of mechanical sensitivity is assessed. […]
# [6] = test system: sciatic nerve cuff-implanted rats; test: Sciatic Nerve Cuff model, cold plate test (paw lifts); type: in vivo, rat; conditions: daily i.p. 30 mg/kg; cold plate 4±2° C.; 10-minute test period; average
# Excerpt: The animal will be placed into a box of approximately 12×12×12 inches. The bottom is filled with an ice-saline mixture and a metal plate is placed just on top of this mixture. […]
# […] Post-testing treatment—the feet will be wiped with a soft cloth or paper towel and the animal will be placed back in its home cage for five minutes. An allowance will be made for the time necessary to transfer to as well as adaptation to the next testing apparatus.
# The method of inducing peripheral neuropathy is by implantation of a single cuff around the sciatic nerve, modified from the method described by Mosconi and Kruger (1996), where two to four cuffs were used. Rats are anaesthetized with a combination of ketamine (5 mg/100 g) and xylazine (0.5 mg/100 g), i.p. The left sciatic nerve is exposed after blunt dissection of overlying muscle and freed from surrounding tissue. A cuff made of a 2 mm segment of polyethylene (PE-90) tubing (Intramedic PE-90, Clay Adams, Division of Becton Dickinson, Parsippany, N.J.) slit longitudinally is fit around the nerve. Subsequently the muscle is sutured, and skin closed using suture clips. Antibiotic ointment (Nitrofurazone 0.2%) is applied over the wound, and 0.03 ml of the antibiotic Tribrissen 24% (trimethoprim-sulfadiazine) is injected subcutaneously. […]
# [7] = test system: sciatic nerve cuff-implanted rats; test: Sciatic Nerve Cuff model, hind leg weight bearing; type: in vivo, rat
# Experimental: The method of inducing peripheral neuropathy is by implantation of a single cuff around the sciatic nerve, modified from the method described by Mosconi and Kruger (1996), where two to four cuffs were used. Rats are anaesthetized with a combination of ketamine (5 mg/100 g) and xylazine (0.5 mg/100 g), i.p. The left sciatic nerve is exposed after blunt dissection of overlying muscle and freed from surrounding tissue. A cuff made of a 2 mm segment of polyethylene (PE-90) tubing (Intramedic PE-90, Clay Adams, Division of Becton Dickinson, Parsippany, N.J.) slit longitudinally is fit around the nerve. Subsequently the muscle is sutured, and skin closed using suture clips. Antibiotic ointment (Nitrofurazone 0.2%) is applied over the wound, and 0.03 ml of the antibiotic Tribrissen 24% (trimethoprim-sulfadiazine) is injected subcutaneously. Animals are placed under a heating lamp until they recovered from the anaesthetic and then returned to their home cage.
# [8] = test system: Male, Sprague Dawley rats; test: Porreca model of allodynia (inflammatory soup onto the dura, hindpaw von Frey); type: in vivo, rat
# [9] = human recombinant nNOS, values without parentheses
# [10] = human recombinant eNOS, values without parentheses
# [11] = human recombinant iNOS, values without parentheses
# [12] = rat nNOS, values in parentheses
smiles,measurement,setting,value
"CN(C)CCN1C(=O)CCc2cc(NC(=N)c3cccs3)ccc21 [Example 3, N-(1-(2-(dimethylamino)ethyl)-2-oxo-1,2,3,4-tetrahydroquinolin-6-yl)thiophene-2-carboximidamide]",IC50,[1],0.58 µM
same,IC50,[2],32 µM
same,IC50,nNOS (Rat),0.21 µM
same,IC50,eNOS (Rat),65 µM
same,IC50,iNOS (Mouse),> 100 µM
same,antihyperalgesic effect in the Chung model,[3],no antihyperalgesic effect
"CN(C)CCN1CCCc2cc(NC(=N)c3cccs3)ccc21 [Example 11, N-(1-(2-(dimethylamino)ethyl)-1,2,3,4-tetrahydroquinolin-6-yl)thiophene-2-carboximidamide]",IC50,[1]; [9],0.253 µM
same,IC50,[1],0.43 µM
same,IC50,[4]; [10],37.7 µM
same,IC50,[4],58.7 µM
same,IC50,[2]; [11],0.85 µM
same,IC50,nNOS (Rat); [12],0.46 µM
same,IC50,eNOS (Rat),> 100 µM
same,IC50,iNOS (Mouse),> 100 µM
same,antihyperalgesic effect in the Chung model,[3],clear antihyperalgesic effect
same,"tactile hypersensitivity, pre-injection reading on the second drug-administration day",[5]; latent effect of the first dose,sustained reversal of the tactile hypersensitivity
same,tactile sensitivity on successive days of administration,[5]; successive days,no further overt effect
same,tactile hypersensitivity (von Frey) after first injection,[5]; two and four hours after the first injection,reversed the tactile hypersensitivity
same,paw lifts in the cold plate test,[6],approximately nine
same,hind paw weight placement 24 hours after the first dose,[7]; 24 hours after the first dose,preferential placement on the contralateral hind paw
same,hind paw weight placement on successive days,[7]; drug administration on successive days,shift in hind paw weight placement toward even distribution on each day
same,"hind paw weight placement, first day","[7]; first day, two hours and four hours after drug administration",shift in weight placement toward even distribution between the two hind paws
"CN(C)CCN1CCCCc2cc(NC(=N)c3cccs3)ccc21.Cl.Cl [Example 28, N-(1-(2-(Dimethylamino)ethyl)-2,3,4,5-tetrahydro-1H-benzo[b]azepin-7-yl)thiophene-2-carboximidamide dihydrochloride]",IC50,[1]; [9],0.44 µM
same,IC50,[4],99.1 µM
same,IC50,[2]; [11],35.7 µM
same,IC50,nNOS (Rat); [12],0.12 µM
same,IC50,eNOS (Rat),62.7 µM
same,IC50,iNOS (Mouse),> 100 µM
same,antihyperalgesic effect in the Chung model,[3],clear antihyperalgesic effect
same,hindpaw allodynia after inflammatory soup (IS),[8]; 30 mg/kg p.o. 15 minutes prior to IS,reverses the development of hindpaw allodynia
"CNCCN1CCCc2cc(NC(=N)c3cccs3)ccc21.Cl.Cl [Example 30, N-(1-(2-(Methylamino)ethyl)-1,2,3,4-tetrahydroquinolin-6-yl)thiophene-2-carboximidamide dihydrochloride]",IC50,[1]; [9],0.57 µM and 0.38 µM and 0.18 µM
same,IC50,[4]; [10],24.7 µM and 29 µM
same,IC50,[4],40.7 µM
same,IC50,[2]; [11],> 100 µM
same,IC50,nNOS (Rat); [12],0.192 µM
same,eNOS IC50 (rodent data in parentheses),eNOS (Rat),(inactive)
same,IC50,iNOS (Mouse),> 100 µM
"CN1CCC(C2C(=O)Nc3ccc(NC(=N)c4cccs4)cc32)CC1 (stereo not shown) [Example 31, N-(3-(1-Methylpiperidin-4-yl)-2-oxoindolin-5-yl)thiophene-2-carboximidamide]",Selectivity eNOS/nNOS,[1],38.3
same,IC50,[1]; [9],0.6 µM
same,IC50,[4]; [10],22.9 µM
same,IC50,[2]; [11],5.52 µM
same,IC50,nNOS (Rat); [12],0.99 µM
same,IC50,eNOS (Rat),> 100 µM
same,IC50,iNOS (Mouse),> 100 µM
"CN(C)CCN1CCCc2ccc(NC(=N)c3cccs3)cc21 [Example 32, N-(1-(2-(Dimethylamino)ethyl)-1,2,3,4-tetrahydroquinolin-7-yl)thiophene-2-carboximidamide]",Selectivity eNOS/nNOS,[1],83.2
same,IC50,[1]; [9],0.45 µM
same,IC50,[4]; [10],37.7 µM
same,IC50,[2]; [11],0.26 µM
same,IC50,nNOS (Rat); [12],0.94 µM
same,IC50,eNOS (Rat),> 100 µM
same,IC50,iNOS (Mouse),> 100 µM
"CN1CCC(N2CCc3cc(NC(=N)c4cccs4)ccc32)CC1 [Example 37, N-(1-(1-Methylpiperidin-4-yl)indolin-5-yl)thiophene-2-carboximidamide]",Selectivity eNOS/nNOS,[1],41.2
same,IC50,[1]; [9],1.22 µM
same,IC50,[4]; [10],50.3 µM
same,IC50,[2]; [11],4.35 µM
same,antihyperalgesic effect in the Chung model,[3],clear antihyperalgesic effect
"CNCCN1CCCc2ccc(NC(=N)c3cccs3)cc21 [Example 44, N-(1-(2-(Methylamino)ethyl)-1,2,3,4-tetrahydroquinolin-7-yl)thiophene-2-carboximidamide]",Selectivity eNOS/nNOS,[1],187
same,IC50,[1]; [9],0.12 µM
same,IC50,[4]; [10],22.4 µM
same,IC50,[2]; [11],> 100 µM
same,IC50,nNOS (Rat); [12],0.48 µM
same,IC50,eNOS (Rat),0.63 µM
same,IC50,iNOS (Mouse),4.3 µM
N=C(Nc1ccc2c(c1)CCCN2C1CCNCC1)c1cccs1 [Example 47],Selectivity eNOS/nNOS,[1],260
same,IC50,[1]; [9],0.6 µM
same,IC50,[4]; [10],156 µM
same,IC50,[2]; [11],6.57 µM
same,IC50,nNOS (Rat); [12],3.8 µM
same,IC50,eNOS (Rat),> 100 µM
same,IC50,iNOS (Mouse),0.34 µM
same,antihyperalgesic effect in the Chung model,[3],clear antihyperalgesic effect
"Cl.Cl.N=C(Nc1ccc2c(c1)CCN2C1CCNCC1)c1cccs1 [Example 54, N-(1-(Piperidin-4-yl)indolin-5-yl)thiophene-2-carboximidamide dihydrochloride]",Selectivity eNOS/nNOS,[1],170
same,IC50,[1]; [9],0.27 µM
same,IC50,[4]; [10],46 µM
same,IC50,[2],> 100 µM
same,IC50,nNOS (Rat); [12],2.6 µM
same,IC50,eNOS (Rat),12 µM
same,IC50,iNOS (Mouse),7.53 µM
same,antihyperalgesic effect in the Chung model,[3],clear antihyperalgesic effect
"CC(C)NCCN1CCCc2cc(NC(=N)c3cccs3)ccc21 [Example 61, N-(1-(2-(Isopropylamino)ethyl)-1,2,3,4-tetrahydroquinolin-6-yl)thiophene-2-carboximidamide]",Selectivity eNOS/nNOS,[1],116
same,IC50,[1]; [9],0.26 µM
same,IC50,[4]; [10],30.2 µM
same,IC50,[2],2.9 µM
same,IC50,nNOS (Rat); [12],1.1 µM
same,Selectivity eNOS/nNOS (rodent data in parentheses),"nNOS (Rat); rodent enzymes, values in parentheses",(5.6)
same,IC50,eNOS (Rat),6.2 µM
same,IC50,iNOS (Mouse),8 µM
"CNS(=O)(=O)Cc1ccc2[nH]cc(CCN(C)C)c2c1 [Sumatriptan succinate, reference compound]",hindpaw allodynia after inflammatory soup (IS),"[8]; 1 mg/kg s.c. 5 minutes prior to the soup, measured two hours after IS",prevention of the development of hindpaw allodynia
